Reference: a melting point compilation (Tetko et al.; mined from patent text by program, amines drawn as free bases though some values may be those of a salt)

| Compound | melting point [°C] |
| --- | --- |
| Nc1nc(O)c2ccnc-2[nH]1 | > 300 |
| Cc1cccc(-c2nc(NC(=O)Nc3ccccc3)sc2-c2ccnc(C)n2)c1 | 141 to 142 |
| CN(Cc1cc2c(=O)c(C(=O)NCc3ccc(Cl)cc3)cn(C)c2s1)CC(O)c1cccnc1 (single isomer, unassigned; (+)) | 132 to 135 |
| Cn1ncnc1COc1nn2c(-c3ccccc3)nnc2cc1C1CCC1 | 228 |
| CC1=C(C(=O)O)Cc2ccc(C)cc21 | 174 to 182 |
| CCOC(=O)C1=C(CO)NC(CF)=C(C(=O)OCC)C1c1cccc([N+](=O)[O-])c1 (configuration not stated) | 149 to 150 |
| COC(=O)COc1ccc(S(=O)(=O)C(Br)(Br)Br)cc1 | 152 to 153 |
| CN(C)c1cc(S(=O)(=O)c2ccccc2)cc(Br)n1 | 128 to 130 |
| CCCCCCCCCCCCCCCCCCNC(=O)OCC(CO)OC(=O)NC (configuration not stated) | 92 to 93 |
| O=c1cc(-c2ccsc2)c2ccc(O)cc2o1 | 234 to 236 |
| COc1ccc(S(=O)(=O)N2CCc3cccc(-c4ccc(C#N)cc4)c32)cc1 | 157 to 159 |
| CCOC(=O)c1cn(-c2nc(NC(C)(C)C)c(F)cc2F)c2c(Cl)c(F)c(F)c([N+](=O)[O-])c2c1=O | 215 to 217 |
| C=CCOc1c(I)cc(C(=O)CCC(=O)c2cc(OC)c(OC)c(OC)c2)cc1OC | 113 to 114 |
| COc1cc2c(cc1-c1cnccn1)-c1c(-c3cccs3)c3c(n1CC2)C(=O)N(C(C)(C)C)CCCOC3 | 267 to 268 |
| C(=C\c1cc(/C=C/c2ccc3[nH]ccc3c2)n[nH]1)/c1ccc(OCc2ccccn2)cc1 | 95 to 102 |
| N#Cc1ccc(Cc2ccc(OCC3CCCCC3)cc2)cc1 | 104 to 106 |
| CNC(=O)c1c(NC(=O)c2cc(C(F)(F)F)nn2-c2ncccc2Cl)c(Br)cc2cn[nH]c12 | > 255 |
| Cc1ccnc2c(N)cc(F)cc12 | 100 to 101 |
| CN1CCc2cc(O)c(O)c(Sc3ccc(F)cc3)c2CC1 | 105 to 114 |
| COC(=O)C(C)(SC)c1ccc(N2C(=O)c3ccccc3C2=O)cc1 (configuration not stated) | 142 to 145 |
| Cc1nc(NC(=O)c2cc(Cl)ccc2F)sc1C(=O)NCc1ccccc1 | 175 to 178 |
| CCOc1cccc(CC(=O)O)c1OCCCc1cn(-c2ccc(C(F)(F)F)cn2)nc1C(C)C | 141 to 142 |
| CCc1c(C)nc2n(c1=O)C(C)CCC2=NNc1ccccc1 (configuration not stated) | 135 to 137 |
| CC(=O)NCc1ccc2[nH]cc(C=O)c2c1 | 182 to 184 |
| CC(=O)Nc1cccc2c1SCC=C2 | 98 to 100 |
| CC(C)[Si](Oc1c(F)cc([C@@H](O)[C@@H](C)N2CCC(O)(c3ccc(Cl)cc3)CC2)cc1F)(C(C)C)C(C)C (relative stereo) | 192 |

| Compound | melting point [°C] |
| --- | --- |
| CC(CO)(Sc1cc2ccccc2[nH]1)c1ccccc1 (configuration not stated) | 126 to 127 |
| COC(=O)C=Cc1cc(-n2nc(C)n(C(F)F)c2=O)c(Cl)cc1Cl | 148 to 151 |
| CCCc1c(O)c(Br)cc(C(C)=O)c1O | 67 |
| CCN(CCCOC)c1nc(C)nc2c1nnn2-c1ccc(C(C)C)cc1Br | 109 to 110 |
| CCOC(=O)c1cc(NC(=O)c2ccc(C)cc2)ccc1N | 167 to 171 |
| O=C(Oc1ccccc1)N1Cc2ccccc2C2(Cc3ccc(Cl)cc3O2)C1 (configuration not stated) | 138 to 140 |
| Cc1nc(Cl)c2sccc2n1 | 82 to 84 |
| CN(C)C(=O)Nc1snc(N(C)C)c1C#N | 203 to 204 |
| CC(C)(C)OC(=O)N1CCC(c2ccc(COc3ccc(S(C)(=O)=O)cc3)cn2)CC1 | 140 to 142 |
| CON=C(C(=O)O)c1cccc(OCc2ccccc2Cl)c1OCc1ccccc1Cl | 97 to 99 |
| CCCCCCNC(=O)[C@@H](NC(=O)OC(C)(C)C)C(C)C | 74 to 76 |
| Cc1ccc(C)n1-c1c(Cl)cc(C(F)(F)F)cc1Cl | 63 |
| CCCCn1c(=O)c2c(ncn2CCC(C)=O)n(CCCC)c1=O | 86 to 87 |
| O=C(O)Cn1c(=O)c(=O)[nH]c2c([N+](=O)[O-])c(Br)c(Br)cc21 | 260 to 264 |
| CCCc1nc(N(C)c2ccccc2)n2ncc(C(=O)c3ccccc3Cl)c2n1 | 149 to 151 |
| CC(=O)c1c(F)ccc(NC2OC(=O)CC(=O)O2)c1F | 82 to 84 |
| CC(C)(NC(=O)CCS)C(=O)O | 169 to 170 |
| COc1cc(N2CCN(C[C@@H](O)CO)CC2)ccc1Nc1ncc2ccc(-c3ccccc3OC)n2n1 | 83 to 90 |
| Clc1cncc(-n2ccc3ccccc32)c1 | 56 to 57 |
| CCCc1cc(=O)n2cccc(C)c2n1 | 59 to 60 |
| CCOC(=O)c1cnc(Nc2cccc([N+](=O)[O-])c2)[nH]c1=O | 226 to 228 |
| COc1cc(OC)nc(OC(C(=O)O)C(C)(C)C#N)n1 (configuration not stated) | 142 to 150 |
| Cn1ncc(Cl)c(NCCCN2CCC(c3noc4cc(F)ccc34)CC2)c1=O | 117 to 119 |
| C=CCn1c(=O)n(CCCN2CCC3(CC2)C(=O)NCN3c2ccccc2)c2ccccc21 | 198 |
| CC(=NNCCc1ccccc1)C(=O)O | 74 to 76 |
| COC(=O)c1nc(-c2ccccn2)n2c1CN=C(c1ccccc1Cl)c1cc(Cl)ccc1-2 | 282 to 285 |

| Compound | melting point [°C] |
| --- | --- |
| COc1ccc(C(=O)NCCCCCCCCNC(=O)c2ccc(OC)cc2)cc1 | 175 to 176 |
| COC(=O)CCC1OC(=O)N=C1c1ccccc1 (configuration not stated) | 104 to 105 |
| O=C(NCc1ccc(Cl)cc1)c1ccc2sccc2c1O | 168 to 169 |
| COc1ccc(-c2cc(CN(C)C)c(=O)n(Cc3ccc(F)c(F)c3)n2)cc1F | 130 |
| O=C(O)c1ccc(C(=O)Nc2ccc(C(=O)N3CCCc4ccccc43)cc2)cc1 | > 300 |
| COc1ccc(-c2cnc3cc4cnn(C[C@@H](O)CO)c4cc3n2)cc1F | 228 to 234 |
| O=C1NCc2cc(C(O)c3cccnc3)ccc2N1 (configuration not stated) | 272 |
| COc1ccc(C2(C#N)C=C(C#N)CCC2)cc1OC1CCCC1 (configuration not stated) | 77 to 79 |
| COc1cc(Nc2nc3ccnc(-c4cccc(N)c4)c3o2)cc(OC)c1OC | 120 to 126 |
| Cc1cc(C)c(-c2csc3c(Cl)cc(C)nc23)c(C)c1 | 129 to 131 |
| O=C(O)C1=Cc2cc(Cl)c(S(=O)c3ccc(Cl)cc3)cc2OC1C(F)(F)F (configuration not stated) | 214 to 217 |
| CCCc1c(OCCCCCCc2cccc(OCCCC(=O)O)c2CCC(=O)O)ccc2c1OCCC2=O | 116 to 118 |
| CNC(=O)c1cccc(NC(=O)Cc2cc(OC)c(OC)c(OC)c2)c1 | 81 to 82 |
| CC(=O)NCC(=O)Nc1cc(Cl)cc(Nc2ncnc3[nH]cc(C(=O)c4ccccc4)c23)c1 | > 300 |
| O=C1c2ccccc2-c2[nH]nc(-c3ccc(Cl)cc3)c21 | > 330 |
| CCCCc1nn(-c2ccccc2Cl)c(=O)n1Cc1ccc(-c2ccccc2S(N)(=O)=O)cc1 | 140 to 142 |
| C#CCSc1ncc(Cl)cn1 | 66 |
| CCCCN(CCC12CC3CC(CC(C3)C1)C2)C(=O)NCCCc1ccncc1 | 110 to 118 |
| CCOc1c(-c2ccc(F)cc2)c(=O)c1=O | 126 to 129 |
| O=C(Nc1ccc(Cl)cc1)NC1N=C(c2ccccc2)c2ccccc2N(CC(=O)N2CCCC2)C1=O (configuration not stated) | 264 to 266 |
| CCNc1cc(Oc2ccc(NC(=O)NC3CC3c3ccccc3)cc2)ncn1 (configuration not stated) | 205 to 206 |
| CC1CC(=O)N(c2cc(Cc3n[nH]c(=O)c4ccccc34)ccc2F)C1=O (configuration not stated) | 171 to 172 |
| COc1cc(Nc2c(C#N)cnc3c(Br)csc23)c(Cl)cc1Cl | 265 to 266 |
| OC12N=C(CSCc3ccccc3)SC1Cc1cc(Cl)ccc12 (configuration not stated) | 102 to 104 |
| COc1ccc(CCNc2ncnc3c(F)ccc(F)c23)cc1C | 162 to 169 |
| Cc1nc(C)c(-c2ccnc(Nc3ccc(N4CCSCC4)cc3)n2)s1 | 173 to 174 |

| Compound | melting point [°C] |
| --- | --- |
| CC(C)N(CCC(CCN(C(C)C)C(C)C)(C(N)=O)c1c(Cl)cccc1Cl)C(C)C | 168 to 170 |
| O=C/C=C/c1cc2ccccc2s1 | 88 |
| O=C(CCCN1CCN(c2ccc(CO)c(Cl)c2)CC1)c1ccc(Cl)cc1 | 137 to 139 |
| O=C1NCCOc2cc([N+](=O)[O-])ccc21 | 208 to 209 |
| Nc1cccc(OCCN2CCCCC2)c1 | 115 |
| O=Cc1c2ccccc2c(CCCl)c2ccccc12 | 158 to 159 |
| CC(O)c1ccc(-c2ccc(O)cc2)cc1 (configuration not stated) | 159 to 160 |
| COC(=O)c1nn(C)nc1C=O | 107 to 108 |
| CCCS(=O)(=O)c1cc([C@H]2CC[C@H](c3cc(OC)c(OC)c(OC)c3)O2)cc(OC)c1O (relative stereo) | 168 to 169 |
| Cc1ncc2[nH]c3ccccc3c2n1 | 240 to 242 |
| CC(=O)c1cc(S(=O)(=O)c2cccc(F)c2)ccc1O | 164 to 165 |
| CCCCNc1cc(C(N)=O)cc(S(N)(=O)=O)c1Oc1ccccc1 | 223 to 224 |
| Oc1ccc2sc(C=C3C4CC5CC(C4)CC3C5)nc2c1 | 156 to 158 |
| COc1cc(CCNC(=S)Nc2nccs2)ccc1OC(C)C | 140 to 141 |
| Cc1ccc(NCc2ccc(N(C)C)cc2)cc1C | 73 to 75 |
| CC(=Cc1ccccc1)c1ccc2c(c1)C(C)(C)CCN2C | 69 to 71 |
| Cc1nc2c(Cl)c(NC(=O)Cc3ccc(Cl)cc3Cl)ccc2s1 | 257 to 258 |
| Cn1ncc2c1-c1c(Oc3ccc(-c4ccc(F)cc4)nc3)sc(C(N)=O)c1CC2 | 236 to 237 |
| O=C(O)c1cc2sc3sccc3c2s1 | 276 |
| Cc1ccc(S(=O)(=O)N2CCC(c3ccc(CCCCC(=O)O)cc3)CC2)cc1 | 164 to 170 |
| CCNC(=O)c1c(Cl)cccc1C(C)(C)C | 121 to 123 |
| COC(C#N)=CC1C(C(=O)O)C1(C)C (configuration not stated) | 110 |
| O=c1[nH]c2ccc([C@H]3CC[C@H](NCCS(=O)(=O)c4ccccc4)CC3)cc2o1 | 202 to 208 |
| CC(=O)C(C(=O)Cc1ccccc1)C(=O)NS(=O)(=O)c1ccc(C)cc1 (configuration not stated) | 120 |
